Assay results as given in patent publication US9249106B2, “Substituted hydrazide compounds and use thereof” (Shenyang J & Health Pharmaceutical Co., Ltd., priority 2009, dated 2016).
In brackets after ≈: the same amount, converted by molar mass. Structures can show the parent of a compound that is named as a salt.

Key:
[1] = system: MCF7 (human breast cancer cell); test: Antitumor activity assay in vitro (MTT); format: cell-based; conditions: MCF7 cells, 72 hours, Bliss method; for IC50: Homo sapiens
Method: (§1) (1) Five cell strains, SK-N-SH (human neuroblastoma cell), NCI-H226 (human lung cancer cell), Bel7402 (human liver cancer cell), A549 (human non-small cell lung cancer), and MCF7 (human breast cancer cell), were thawed and stably passaged for two or three times, respectively, and then digested with trypsin solution (0.25%) so as to be removed from the bottom of culture flasks. The digested cell solution was poured into a centrifuge tube, to which culture media was added to stop the digestion. The centrifuge tube was centrifuged at 1300 r/min for 3 min, the supernatant was removed gently and then 5 mL culture media was added. The cells were pipetted and mixed homogeneously. 10 μL cell suspension was taken into a cell counting plate for counting, wherein the cell concentration was adjusted to 10^4 cells/well. Each well of the 96-well plates, except for A1 well as blank control, contained 100 μL cell suspension. The 96-well plates were placed in an incubator and cultivated for 24 hours.
(§2) (2) 50 μL dimethyl sulfoxide was used to dissolve the test samples, and then a suitable amount of culture media was added so as to reach a final concentration of 2 mg/mL. Then the samples were diluted to 100, 20, 4, 0.8, 0.16 μg/mL in a 24-well plate, respectively. […] The 96-well plates were placed in an incubator and cultivated for 72 hours.
(§3) (3) The culture media containing the compounds in the 96-well plates was discarded, and the cells were washed with phosphate buffered solution (PBS) twice. Each well was added with 100 μL MTT (tetrazole) (0.5 mg/mL), and then placed in an incubator to incubate for 4 hours, after which MTT solution was discarded and 100 μL dimethyl sulfoxide was added thereto. The reaction product of survival cells with MTT, i.e. formazan, was dissolved completely by oscillation on a magnetic oscillator, then placed into a microplate reader to measure the results, and the IC50 values of compounds could be deduced by Bliss method. The control, N′-[(2-hydroxy-3-allyl)phenylmethylene]-2-(4-benzylpiperazin-1-yl)acethydrazide(PAC-1), was produced according to the method of patent WO2008/134474 A2.

[2] = system: Bel7402 (human liver cancer cell); test: Antitumor activity assay in vitro (MTT); format: cell-based; conditions: 72 hours, Bliss method; for IC50 Bel7402: Bel7402 cells; for IC50: Homo sapiens, Bel-7402, Bel7402 cells
Method: as §1, §2, §3

[3] = system: SK-N-SH (human neuroblastoma cell); test: Antitumor activity assay in vitro (MTT); format: cell-based; conditions: SK-N-SH cells, 72 hours, Bliss method; for IC50: Homo sapiens
Method: as §1, §2, §3

[4] = system: NCI-H226 (human lung cancer cell); test: Antitumor activity assay in vitro (MTT); format: cell-based; conditions: NCI-H226 cells, 72 hours, Bliss method; for IC50: Homo sapiens, read-out: IC50 NCI-226
Method: as §1, §2, §3

[5] = system: A549 (human non-small cell lung cancer); test: Antitumor activity assay in vitro (MTT); format: cell-based; conditions: A549 cells, 72 hours, Bliss method; for IC50: Homo sapiens
Method: as §1, §2, §3

Procaspase-3 = biological target: T1, Procaspase-3 (Homo sapiens, UniProt P42574); conditions: both in vitro and in vivo; cited from earlier work
T1 sequence (P42574 1-277): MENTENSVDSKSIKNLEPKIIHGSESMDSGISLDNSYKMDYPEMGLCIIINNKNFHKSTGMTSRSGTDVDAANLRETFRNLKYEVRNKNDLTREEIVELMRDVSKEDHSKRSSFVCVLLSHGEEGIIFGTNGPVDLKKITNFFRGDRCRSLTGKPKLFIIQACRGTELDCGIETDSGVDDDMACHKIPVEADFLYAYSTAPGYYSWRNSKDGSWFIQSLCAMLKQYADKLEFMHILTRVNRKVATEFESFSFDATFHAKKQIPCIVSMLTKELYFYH

cancer cells = conditions: after treatment with PAC-1; cited from earlier work

Compound	IC50 MCF7 [1]	IC50 Bel7402 [2]	IC50 SK [3]	IC50 NCI-226 [4]	IC50 A549 [5]	IC50 [1]	IC50 [2]	IC50 [3]	IC50 [4]	IC50 [5]	activation of Procaspase-3 (Procaspase-3)	time to induction of apoptosis of cancer cells after treatment (cancer cells)
CC(C)(C)c1cc(C=NNC(=O)c2ccc3nc[nH]c3c2)c(O)c(C(C)(C)C)c1.Cl [Example 1, N′-[(2-hydroxy-3,5-di-tert-butyl)phenylmethylene]-1H-benzo[d]imidazole-6-formhydrazide hydrochloride]	0.8 µg/mL	0.56 µg/mL	0.08 µg/mL	0.07 µg/mL	0.4 µg/mL							
Cc1ccc(C=NNC(=O)c2ccc3nc[nH]c3c2)c(O)c1.Cl [Example 2, N′-[(2-hydroxy-4-methyl)phenylmethylene]-1H-benzo[d]imidazole-6-formhydrazide hydrochloride]	1.8 µg/mL	2.4 µg/mL	2.1 µg/mL	1.0 µg/mL	1.9 µg/mL							
O=C(NN=Cc1c(O)ccc2ccccc12)c1ccc2nc[nH]c2c1 [Example 3, N′-[(2-hydroxy-1-naphthyl)methylene]-1H-benzo[d]imidazole-6-formhydrazide hydrochloride]						1.2 µg/mL	2.5 µg/mL	3 µg/mL	1.1 µg/mL	0.7 µg/mL		
C=CCc1cccc(C=NNC(=O)c2ccc3nc[nH]c3c2)c1O.Cl [Example 4, N′-[(2-hydroxy-3-allyl)phenylmethylene]-1H-benzo[d]imidazole-6-formhydrazide hydrochloride]	3.3 µg/mL	1.3 µg/mL	1.3 µg/mL	0.2 µg/mL	2 µg/mL							
Cc1cc(C)c(C=NNC(=O)c2ccc3nc[nH]c3c2)c(O)c1C.Cl [Example 6, N′-[(2-hydroxy-3,4,6-trimethyl)phenylmethylene]-1H-benzo[d]imidazole-6-formhydrazide hydrochloride]	3.2 µg/mL	2.6 µg/mL	1.8 µg/mL	1.7 µg/mL	3.1 µg/mL							
Cc1ccc(O)c(C=NNC(=O)c2ccc3nc[nH]c3c2)c1.Cl [Example 7, N′-[(2-hydroxy-5-methyl)phenylmethylene]-1H-benzo[d]imidazole-6-formhydrazide hydrochloride]	1.9 µg/mL	5.4 µg/mL	3.2 µg/mL	2.7 µg/mL	12 µg/mL							
Cc1ccc(C(C)C)c(C=NNC(=O)c2ccc3nc[nH]c3c2)c1O.Cl [Example 8, N′-[(2-hydroxy-3-methyl-6-isopropyl)phenylmethylene]-1H-benzo[d]imidazole-6-formhydrazide hydrochloride]	1.7 µg/mL	2.4 µg/mL	3.0 µg/mL	1.0 µg/mL	1.5 µg/mL							
Cl.O=C(NN=Cc1ccc(OCc2ccc(Cl)cc2)cc1O)c1ccc2nc[nH]c2c1 [Example 9, N′-{[2-hydroxy-4-(4-chlorobenzyloxy)]phenylmethylene}-1H-benzo[d]imidazole-6-formhydrazide hydrochloride]	0.6 µg/mL	1.5 µg/mL	0.2 µg/mL	0.5 µg/mL	0.9 µg/mL							
O=C(NN=Cc1ccccc1O)c1ccc2nc[nH]c2c1 [Example 11, N′-[(2-hydroxy)phenylmethylene]-1H-benzo[d]imidazole-6-formhydrazide hydrochloride]						2.3 µg/mL	3.2 µg/mL	2.7 µg/mL	2.3 µg/mL	10 µg/mL		
Cl.O=C(NN=Cc1cc(OCc2ccc(Cl)cc2)ccc1O)c1ccc2nc[nH]c2c1 [Example 12, N′-{[2-hydroxy-5-(4-chlorobenzyloxy)]phenylmethylene}-1H-benzo[d]imidazole-6-formhydrazide hydrochloride]	2.1 µg/mL	3.3 µg/mL	3.0 µg/mL	1.7 µg/mL	5.8 µg/mL							
Cl.O=C(NN=Cc1ccc(OCc2ccccc2)cc1O)c1ccc2nc[nH]c2c1 [Example 13, N′-[(2-hydroxy-4-benzyloxy)phenylmethylene]-1H-benzo[d]imidazole-6-formhydrazide hydrochloride]	1.8 µg/mL	3.7 µg/mL	1.1 µg/mL	2.4 µg/mL	2.6 µg/mL							
C=CCN1C(=O)NC(=O)C(C=NNC(=O)c2ccc3nc[nH]c3c2)C1=O (centres unmarked) [Example 14, N′-[(1-allyl-2,4,6-pyrimidinetrione-5-yl)methylene]-1H-benzo[d]imidazole-6-formhydrazide]						1.7 µg/mL (≈ 4.8 µM)	2.2 µg/mL (≈ 6.21 µM)	0.9 µg/mL (≈ 2.54 µM)	2.5 µg/mL (≈ 7.06 µM)	10 µg/mL (≈ 28.2 µM)		
Cl.O=C(NN=Cc1cc(OCc2cccc(Cl)c2)ccc1O)c1ccc2nc[nH]c2c1 [Example 18, N′-{[2-hydroxy-5-(3-chlorobenzyloxy)]phenylmethylene}-1H-benzo[d]imidazole-6-formhydrazide hydrochloride]	2.7 µg/mL	3.1 µg/mL	1.7 µg/mL	2.3 µg/mL	1.5 µg/mL							
Cl.O=C(Cc1nc2ccccc2[nH]1)NN=Cc1cc(C(=O)CCl)ccc1O [Example 22, N′-[(2-hydroxy-5-chloroacetyl)phenylmethylene]-1H-benzo[d]imidazole-2-acethydrazide hydrochloride]	3.4 µg/mL	0.5 µg/mL	1.0 µg/mL	0.8 µg/mL	1.7 µg/mL							
Cc1cc(C)c(C=NNC(=O)Cc2nc3ccccc3[nH]2)c(O)c1C.Cl [Example 23, N′-[(2-hydroxy-3,4,6-trimethyl)phenylmethylene]-1H-benzo[d]imidazole-2-acethydrazide hydrochloride]	2.6 µg/mL	3.1 µg/mL	0.3 µg/mL	0.3 µg/mL	2.4 µg/mL							
Cl.O=C(Cc1nc2ccccc2[nH]1)NN=Cc1cc(OCc2ccccc2)ccc1O [Example 25, N′-[(2-hydroxy-5-benzyloxy)phenylmethylene]-1H-benzo[d]imidazole-2-acethydrazide hydrochloride]	1.0 µg/mL	3.7 µg/mL	0.4 µg/mL	1.6 µg/mL	4.1 µg/mL							
C=CCc1cccc(/C=N/NC(=O)CN2CCN(Cc3ccccc3)CC2)c1O [PAC-1, N′-[(2-hydroxy-3-allyl)phenylmethylene]-2-(4-benzylpiperazin-1-yl)acethydrazide, reference compound]						2.6 µg/mL (≈ 6.62 µM)	3.8 µg/mL (≈ 9.68 µM)	4.3 µg/mL (≈ 11 µM)	1.7 µg/mL (≈ 4.33 µM)	1.9 µg/mL (≈ 4.84 µM)	activate Procaspase-3 significantly	≤ 23 h
N′-{[2-hydroxy-3-(1-methyl-2-allyl)]phenylmethylene}-1H-benzo[d]imidazole-6-formhydrazide hydrochloride [Example 10]	3.8 µg/mL	3.3 µg/mL	1.1 µg/mL	1.0 µg/mL	1.2 µg/mL							
